Reference: patent US6248747A, “5-(heterocyclic alkyl)-6-aryl-dihydropyrimidines” (Synaptic Pharmaceutical Corporation, priority 1999, dated 2001)
Where two headings read alike, the source gives them in different places.

Tests used:
[1] = biological target: T1, cloned human α1c receptor (Homo sapiens, UniProt P35348); assay: Radioligand binding affinity at cloned human α1c receptor ([3H]prazosin); settings: LM(tk-) cell membranes, SEM and n
T1 construct: The entire coding region of α1C (1401 bp); expressed in transfected cells; host or cells: LM(tk-) cells, membranes; vector EXJ.RH (derived from pCEXV-3)
T1 sequence (P35348 1-466): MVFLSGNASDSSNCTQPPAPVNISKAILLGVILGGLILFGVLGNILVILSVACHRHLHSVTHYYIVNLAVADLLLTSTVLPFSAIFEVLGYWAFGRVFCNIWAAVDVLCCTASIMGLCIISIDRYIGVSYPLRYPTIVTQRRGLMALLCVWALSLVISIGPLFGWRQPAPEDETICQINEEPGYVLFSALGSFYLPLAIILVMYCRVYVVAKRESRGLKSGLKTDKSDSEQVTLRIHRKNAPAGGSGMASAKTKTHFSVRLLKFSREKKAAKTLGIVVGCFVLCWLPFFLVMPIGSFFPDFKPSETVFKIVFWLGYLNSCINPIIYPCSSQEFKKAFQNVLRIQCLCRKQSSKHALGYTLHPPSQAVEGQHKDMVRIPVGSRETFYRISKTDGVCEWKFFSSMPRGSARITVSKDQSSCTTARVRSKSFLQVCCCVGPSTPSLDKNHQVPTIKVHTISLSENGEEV
Procedure: (§1) The protocols for these experiments are given below.
(§2) These cell lines were prepared by transfecting the cloned cDNA or cloned genomic DNA or constructs containing both genomic DNA and cDNA encoding the human α-adrenergic receptors as follows:
The construct involved ligating three partial overlapping fragments: a 5' 0.6 kb HincII genomic clone, a central 1.8 EcoRI hippocampal cDNA clone, and a 3' 0.6 Kb PstI genomic clone. The hippocampal cDNA fragment overlaps with the 5' and 3' genomic clones so that the HincII and PstI sites at the 5' and 3' ends of the cDNA clone, respectively, were utilized for ligation. This full-length clone was cloned into the KpnI site of the expression vector, using the 5' and 3' KpnI sites of the fragment, derived from vector (i.e., pBluescript) and 3'-untranslated sequences, respectively. Stable cell lines were selected as described above.
Radioligand Binding Assays: Transfected cells from culture flasks were scraped into 5 ml of 5 mM Tris-HCl, 5 mM EDTA, pH 7.5, and lysed by sonication. The cell lysates were centrifuged at 1000 rpm for 5 min at 4° C., and the supernatant was centrifuged at 30,000×g for 20 min at 4° C. The pellet was suspended in 50 mM Tris-HCl, 1 mM MgCl2, and 0.1% ascorbic acid at pH 7.5. […] Nonspecific binding was determined in the presence of 10 μM phentolamine. […]

[2] = biological target: T2, cloned human α1b receptor (Homo sapiens, UniProt P35368); assay: Radioligand binding affinity at cloned human α1b receptor ([3H]prazosin); settings: LM(tk-) cell membranes, SEM and n
T2 construct: The entire coding region of α1B (1563 bp); expressed in transfected cells; host or cells: LM(tk-) cells, membranes; vector pCEXV-3
T2 sequence (P35368 1-520): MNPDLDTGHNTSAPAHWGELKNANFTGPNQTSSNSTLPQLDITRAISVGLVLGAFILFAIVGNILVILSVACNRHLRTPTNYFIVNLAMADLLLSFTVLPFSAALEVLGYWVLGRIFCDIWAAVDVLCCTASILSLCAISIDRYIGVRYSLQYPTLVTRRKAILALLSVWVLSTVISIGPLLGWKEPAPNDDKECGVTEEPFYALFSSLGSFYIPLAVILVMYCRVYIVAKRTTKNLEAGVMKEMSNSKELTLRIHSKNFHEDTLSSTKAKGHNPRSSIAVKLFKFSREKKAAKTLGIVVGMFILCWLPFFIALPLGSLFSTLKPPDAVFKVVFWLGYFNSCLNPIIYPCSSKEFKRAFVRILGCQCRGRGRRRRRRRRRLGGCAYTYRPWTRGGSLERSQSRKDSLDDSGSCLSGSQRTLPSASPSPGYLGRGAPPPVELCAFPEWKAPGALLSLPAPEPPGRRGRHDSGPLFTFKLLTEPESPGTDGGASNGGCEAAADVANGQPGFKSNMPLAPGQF
Procedure: as §1, §2
The construct involved ligating the full-length containing EcoRI brainstem cDNA fragment from λ ZapII into the expression vector. Stable cell lines were selected as described above.
(§3) Radioligand Binding Assays: Transfected cells from culture flasks were scraped into 5 ml of 5 mM Tris-HCl, 5 mM EDTA, pH 7.5, and lysed by sonication. The cell lysates were centrifuged at 1000 rpm for 5 min at 4° C., and the supernatant was centrifuged at 30,000×g for 20 min at 4° C. The pellet was suspended in 50 mM Tris-HCl, 1 mM MgCl2, and 0.1% ascorbic acid at pH 7.5. […] Nonspecific binding was determined in the presence of 10 μM phentolamine. The reaction was stopped by filtration through GF/B filters using a cell harvester.

[3] = biological target: T3, cloned human α1a receptor (Homo sapiens, UniProt P25100); assay: Radioligand binding affinity at cloned human α1a receptor ([3H]prazosin); settings: LM(tk-) cell membranes, SEM and n
T3 construct: The entire coding region of α1A (1719 bp); expressed in transfected cells; host or cells: LM(tk-) cells, membranes
T3 sequence (P25100 1-572): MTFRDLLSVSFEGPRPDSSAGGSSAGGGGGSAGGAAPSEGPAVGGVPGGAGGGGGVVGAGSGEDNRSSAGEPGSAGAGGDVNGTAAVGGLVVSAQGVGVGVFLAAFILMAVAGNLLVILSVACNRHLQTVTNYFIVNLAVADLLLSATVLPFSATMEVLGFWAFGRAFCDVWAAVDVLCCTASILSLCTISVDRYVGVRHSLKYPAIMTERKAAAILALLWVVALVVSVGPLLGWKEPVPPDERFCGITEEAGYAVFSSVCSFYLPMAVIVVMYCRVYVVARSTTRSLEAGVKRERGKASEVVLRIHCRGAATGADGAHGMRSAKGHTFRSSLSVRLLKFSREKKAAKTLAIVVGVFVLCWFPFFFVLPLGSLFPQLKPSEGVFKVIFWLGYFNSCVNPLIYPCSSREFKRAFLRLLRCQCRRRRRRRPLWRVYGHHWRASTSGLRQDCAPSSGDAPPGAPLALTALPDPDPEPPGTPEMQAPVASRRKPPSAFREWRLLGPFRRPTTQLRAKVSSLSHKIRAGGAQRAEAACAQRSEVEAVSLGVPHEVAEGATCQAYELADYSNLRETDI
Procedure: as §1, §2, §3

[4] = cited from earlier work
[5] = system: benign prostatic hyperplasia (BPH); settings: literature report (phenoxybenzamine: M. Caine et al. 1976); cited from earlier work

SMILES	side effects ([4]; background statement)	usefulness in treating BPH [5]	also measured
CCC1=C(C(N)=O)C(c2ccc(F)c(F)c2)N(C(=O)NCCCN2CCC(C(=O)OC)(c3ccccc3)CC2)C(=O)N1 (single isomer, unassigned; (+)) [Example 20, (+)-5-Carboxamido-6-(3,4-difluorophenyl)-4-ethyl-1-{N-[3-(4-methoxycarbonyl-4-phenylpiperidin-1-yl)propyl]}carboxamido-2-oxo-1,2,3,6-tetrhydropyrimidine]	–	–	hα1c pKi [1]: 9.68; hα1b pKi [2]: 6.59; hα1a pKi [3]: 6.46
COc1cc2nc(N3CCN(C(=O)C4CCCO4)CC3)nc(N)c2cc1OC (stereo not shown) [terazosin]	untoward side effects	useful for treating BPH	–
Clc1cccc(Cl)c1N=C1NCCN1 [clonidine]	dry mouth and sedation	–	–
CC(COc1ccccc1)N(CCCl)Cc1ccccc1 (stereo not shown) [phenoxybenzamine]	significant side effects such as dizziness and asthenia	useful in relieving the symptoms of BPH	–
COc1cc2nc(N3CCN(C(=O)c4ccco4)CC3)nc(N)c2cc1OC [prazosin]	–	useful for treating BPH	side effects ([4]; in vivo): untoward side effects
